Measured values as given in patent publication US20230150986A1, “ANTAGONISTS OF THE MUSCARINIC ACETYLCHOLINE RECEPTOR M4” (Vanderbilt University, priority 2019, published 2023).
pIC50: −log10 of the molar value.

Target: T1, Human M4 (Homo sapiens, UniProt P08173)
T1 construct: Human or rat M4 cDNA, along with the chimeric G protein Gq,5, were transfected into Chinese hamster ovary (CHO-K1) cells; expressed in transfected cells; host or cells: CHO-K1 (M4/Gqi5/CHO)
T1 sequence (P08173 1-479): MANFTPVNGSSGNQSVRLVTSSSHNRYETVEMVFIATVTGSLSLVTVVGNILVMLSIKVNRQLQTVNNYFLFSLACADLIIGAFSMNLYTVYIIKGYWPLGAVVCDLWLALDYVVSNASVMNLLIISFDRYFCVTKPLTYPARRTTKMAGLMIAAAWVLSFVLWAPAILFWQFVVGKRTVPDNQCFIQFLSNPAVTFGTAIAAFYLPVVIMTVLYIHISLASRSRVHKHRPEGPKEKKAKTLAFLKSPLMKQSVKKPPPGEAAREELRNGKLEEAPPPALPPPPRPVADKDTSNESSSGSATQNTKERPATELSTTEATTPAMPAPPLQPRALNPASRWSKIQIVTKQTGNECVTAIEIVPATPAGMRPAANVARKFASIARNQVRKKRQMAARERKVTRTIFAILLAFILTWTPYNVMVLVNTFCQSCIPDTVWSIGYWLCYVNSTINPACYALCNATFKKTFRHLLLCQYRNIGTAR
Assay: mAChR M4 cell-based functional assay (calcium flux, decrease of EC80 acetylcholine response)
Conditions: for Human M4 Emin: % ACh maximum at 30 μM; for pIC50: CHO-K1 cells with human M4 and Gqi5, EC80 acetylcholine
Procedure: Human or rat M4 cDNA, along with the chimeric G protein Gq,5, were transfected into Chinese hamster ovary (CHO-K1) cells purchased from the American Type Culture Collection using Lipofectamine2000. M4/Gqi5/CHO cells were grown in Ham's F-12 medium containing 10% heat-inactivated fetal bovine serum (FBS), 20 mM HEPES, 500 μg/mL G^418 sulfate, and 200 μg/mL Hygromycin B.
For high throughput measurement of agonist-evoked increases in intracellular calcium, CHO-K1 cells stably expressing muscarinic receptors were plated in growth medium lacking G418 and hygromycin at 15,000 cells/20 μL/well in Greiner 384-well black-walled, tissue culture (TC)-treated, clear-bottom plates (VWR). Cells were incubated overnight at 37° C. and 5% CO2. The next day, cells were washed using an ELX 405 (BioTek) with assay buffer; the final volume was then aspirated to 20 μL. Next, 20 μL of a 2.3 μM stock of Fluo-4/acetoxymethyl ester (Invitrogen, Carlsbad, Calif.), prepared as a 2.3 mM stock in DMSO and mixed in a 1:1 ratio with 10% (w/v) Pluronic F-127 and diluted in assay buffer, was added to the wells and the cell plates were incubated for 50 min at 37° C. and 5% CO2. Dye was removed by washing with the ELX 405 and the final volume was aspirated to 20 μL. Compound master plates were formatted in a 10 point concentration-response curve (CRC) format (1:3 dilutions) in 100% DMSO with a starting concentration of 10 or 1 mM using a BRAVO liquid handler (Agilent). Test compound CRCs were then transferred to daughter plates (240 nL) using the Echo acoustic plate reformatter (Labcyte, Sunnyvale, Calif.) and then diluted into assay buffer (40 μL) to a 2× stock using a Thermo Fisher Combi (Thermo Fisher Scientific, Waltham, Mass.).
Calcium flux was measured using the Functional Drug Screening System (FDSS) 6000 or 7000 (Hamamatsu Corporation, Tokyo, Japan) as an increase in the fluorescent static ratio. Compounds were applied to cells (20 μL, 2×) using the automated system of the FDSS at 2 seconds into the protocol and the data were collected at 1 Hz. At 143 s, 10 μL of an EC20 concentration of the muscarinic receptor agonist acetylcholine was added (5×), followed by the addition of […] of an EC80 concentration of acetylcholine at the 268 s time point (5×). Agonist activity was analyzed as a concentration-dependent increase in calcium mobilization upon compound addition. Positive allosteric modulator activity was analyzed as a concentration-dependent increase in the EC2o acetylcholine response. Antagonist activity was analyzed as a concentration-dependent decrease in the EC80 acetylcholine response; for the purposes of the tables herein, an IC50 (inhibitory concentration 50) was calculated as a concentration-dependent decrease of the response elicited by an EC80 concentration of acetylcholine. Concentration-response curves were generated using a four-parameter logistical equation in XLFit curve fitting software (IDBS, Bridgewater, N.J.) for Excel (Microsoft, Redmond, Wash.) or Prism (GraphPad Software, Inc., San Diego, Calif.) or the Dotmatics software platform (Dotmatics, Bishop's Stortford, UK).
Compounds were synthesized as described above. Activity (IC50 and Emin) was determined in the mAChR M4 cell-based functional assay as described above and the data are shown in Table 2.

Compound | Human M4 Emin | pIC50
Fc1cc(F)c(F)c(-c2ccc(N[C@H]3C[C@@H]4CN(Cc5cccc(Cl)n5)C[C@@H]4C3)nn2)c1 [Compound 20, (3aR,5s,6aS)-2-((6-chloropyridin-2-yl)methyl)-N-(6-(2,3,5-trifluorophenyl)pyridazin-3-yl)octahydrocyclopenta[c]pyrrol-5-amine] | 5% | 6.95
CC(C)(C)OCCN1C[C@H]2C[C@H](Nc3ccc(-c4cc(F)cc(F)c4F)nn3)C[C@H]2C1 [Compound 53, (3aR,5s,6aS)-2-(2-(tert-butoxy)ethyl)-N-(6-(2,3,5-trifluorophenyl)pyridazin-3-yl)octahydrocyclopenta[c]pyrrol-5-amine] | 3% | 8.59
CC(N1C[C@H]2C[C@H](Nc3ccc(-c4cc(F)cc(F)c4F)nn3)C[C@H]2C1)C1(C)CCOCC1 (stereo partly drawn) [Compound 46, (3aR,5s,6aS)-2-(1-(4-methyltetrahydro-2H-pyran-4-yl)ethyl)-N-(6-(2,3,5-trifluorophenyl)pyridazin-3-yl)octahydrocyclopenta[c]pyrrol-5-amine] | 2% | 7.23
[2H]C([2H])(N1C[C@H]2C[C@H](Nc3ccc(-c4cc(F)cc(F)c4F)nn3)C[C@H]2C1)C1(C)CCCOC1 (stereo partly drawn) [Compound 49, (3aR,5s,6aS)-2-((3-methyltetrahydro-2H-pyran-3-yl)methyl-d2)-N-(6-(2,3,5-trifluorophenyl)pyridazin-3-yl)octahydrocyclopenta[c]pyrrol-5-amine] | 2% | 7.59
Fc1cc(F)c(F)c(-c2ccc(N[C@H]3C[C@@H]4CN(Cc5ccnnc5)C[C@@H]4C3)nn2)c1 [Compound 38, (3aR,5s,6aS)-2-(pyridazin-4-ylmethyl)-N-(6-(2,3,5-trifluorophenyl)pyridazin-3-yl)octahydrocyclopenta[c]pyrrol-5-amine] | 16% | 5.28
OC1CCCCC1N1C[C@H]2C[C@H](Nc3ccc(-c4cc(F)cc(F)c4F)nn3)C[C@H]2C1 (stereo partly drawn) [Compound 65, 2-((3aR,5s,6aS)-5-((6-(2,3,5-trifluorophenyl)pyridazin-3-yl)amino)hexahydrocyclopenta[c]pyrrol-2(1H)-yl)cyclohexan-1-ol] | 6% | 6.46
Fc1ccc(OCCN2C[C@H]3C[C@H](Nc4ccc(-c5cc(F)cc(F)c5F)nn4)C[C@H]3C2)cc1 [Compound 58, (3aR,5s,6aS)-2-(2-(4-fluorophenoxy)ethyl)-N-(6-(2,3,5-trifluorophenyl)pyridazin-3-yl)octahydrocyclopenta[c]pyrrol-5-amine] | 4% | 6.77
Cc1cccnc1CN1C[C@H]2C[C@H](Nc3ccc(-c4cc(F)cc(F)c4F)nn3)C[C@H]2C1 [Compound 23, (3aR,5s,6aS)-2-((3-methylpyridin-2-yl)methyl)-N-(6-(2,3,5-trifluorophenyl)pyridazin-3-yl)octahydrocyclopenta[c]pyrrol-5-amine] | 5% | 7.37
Fc1cc(F)c(F)c(-c2ccc(N[C@H]3C[C@@H]4CN(CCC(F)(F)F)C[C@@H]4C3)nn2)c1 [Compound 60, (3aR,5s,6aS)-N-(6-(2,3,5-trifluorophenyl)pyridazin-3-yl)-2-(3,3,3-trifluoropropyl)octahydrocyclopenta[c]pyrrol-5-amine] | 13% | 6.09
Fc1ccc(CN2C[C@H]3C[C@H](Nc4ccc(-c5cc(F)cc(F)c5F)nn4)C[C@H]3C2)c(F)c1 [Compound 91, (3aR,5s,6aS)-2-(2,4-difluorobenzyl)-N-(6-(2,3,5-trifluorophenyl)pyridazin-3-yl)octahydrocyclopenta[c]pyrrol-5-amine] | 4% | 6.44
CC(C)(O)CCN1C[C@H]2C[C@H](Nc3ccc(-c4cc(F)cc(F)c4F)nn3)C[C@H]2C1 [Compound 54, 2-methyl-4-((3aR,5s,6aS)-5-((6-(2,3,5-trifluorophenyl)pyridazin-3-yl)amino)hexahydrocyclopenta[c]pyrrol-2(1H)-yl)butan-2-ol] | 5% | 6.80

Continued by rising pIC50, values first:

Human M4 Emin | pIC50 | Compound
3% | 7.86 | Fc1cc(F)c(F)c(-c2ccc(N[C@H]3C[C@@H]4CN(CC5CCCOC5)C[C@@H]4C3)nn2)c1 (single isomer, unassigned) [Compound 24]
3% | 8.22 | OC1(CN2C[C@H]3C[C@H](Nc4ccc(-c5cc(F)cc(F)c5F)nn4)C[C@H]3C2)CCCCC1 [Compound 9, 1-(((3aR,5s,6aS)-5-((6-(2,3,5-trifluorophenyl)pyridazin-3-yl)amino)hexahydrocyclopenta[c]pyrrol-2(1H)-yl)methyl)cyclohexan-1-ol]
3% | 8.24 | Fc1cc(F)c(F)c(-c2ccc(N[C@H]3C[C@@H]4CN(CC5CCCOC5)C[C@@H]4C3)nn2)c1 (single isomer, unassigned) [Compound 25]
2% | 8.51 | Fc1cc(F)c(F)c(-c2ccc(N[C@@H]3C[C@H]4CN(CC5CCOCC5)C[C@H]4[C@@H]3F)nn2)c1 (racemic) [Compound 86, (3aR,4R,5S,6aS)-4-fluoro-2-((tetrahydro-2H-pyran-4-yl)methyl)-N-(6-(2,3,5-trifluorophenyl)pyridazin-3-yl)octahydrocyclopenta[c]pyrrol-5-amine and (3aS,4S,5R,6aR)-4-fluoro-2-((tetrahydro-2H-pyran-4-yl)methyl)-N-(6-(2,3,5-trifluorophenyl)pyridazin-3-yl)octahydrocyclopenta[c]pyrrol-5-amine]
3% | 8.68 | Fc1cc(F)c(F)c(-c2ccc(N[C@H]3C[C@@H]4CN(CC5CC56CCOCC6)C[C@@H]4C3)nn2)c1 (stereo partly drawn) [Compound 72, (3aR,5s,6aS)-2-((6-oxaspiro[2.5]octan-1-yl)methyl)-N-(6-(2,3,5-trifluorophenyl)pyridazin-3-yl)octahydrocyclopenta[c]pyrrol-5-amine]
3% | 9.05 | O=S1(=O)CCC(CN2C[C@H]3C[C@H](Nc4ccc(-c5cc(F)cc(F)c5F)nn4)C[C@H]3C2)CC1 [Compound 69, 4-(((3aR,5s,6aS)-5-((6-(2,3,5-trifluorophenyl)pyridazin-3-yl)amino)hexahydrocyclopenta[c]pyrrol-2(1H)-yl)methyl)tetrahydro-2H-thiopyran 1,1-dioxide]
3% | 9.44 | Fc1cc(F)c(F)c(-c2ccc(N[C@H]3C[C@@H]4CN(CC5CC6(COC6)C5)C[C@@H]4C3)nn2)c1 [Compound 68, (3aR,5s,6aS)-2-((2-oxaspiro[3.3]heptan-6-yl)methyl)-N-(6-(2,3,5-trifluorophenyl)pyridazin-3-yl)octahydrocyclopenta[c]pyrrol-5-amine]
